Results from patent US20250213500A1, “PHARMACEUTICAL COMPOSITION FOR IMPROVING LIFE QUALITY OF ELDERLY PEOPLE ON BASIS OF VITAMIN K2, PREPARATION METHOD THEREFOR AND USE THEREOF” (priority 2022, published 2025).

System: tumor cells
Assay: Tumor inhibition in mice subcutaneously inoculated with tumor cells
Assay type: in vivo
Details: 10 mg/kg once daily for 15 days; tumor weight vs saline group
Procedure: A total of 140 mice (equal number of males and females), approximately 3 months old, with a weight range of 15.41-18.47 g, were selected. Mice were subcutaneously inoculated with tumor cells, and their blood samples were drawn 24 hours later to test tumor markers and confirm the success of the mouse model establishment. A total of 126 mice confirmed with cancer (equal number of males and females) were selected and randomly divided into 6 groups, with 21 mice in each group (roughly equal number of males and females). These 6 groups were designated as Experimental Group 1, Experimental Group 2, Experimental Group 3, Experimental Group 4, Experimental Group 5, and Experimental Group 6. […] Tumor inhibition rate was calculated as follows: Tumor Inhibition Rate=(Average Tumor Weight in Control Group−Average Tumor Weight in Experimental Group)/Average Tumor Weight in Control Group.

| SMILES | Tumor Inhibition Rate [%] |
| --- | --- |
| CCCc1nn(C)c2c(=O)[nH]c(-c3cc(S(=O)(=O)N4CCN(C)CC4)ccc3OCC)nc12 [sildenafil] | 40.55 |
| CC(C)=CCC/C(C)=C/CC/C(C)=C/CC/C(C)=C/CC/C(C)=C/CC/C(C)=C/CC/C(C)=C/CC1=C(C)C(=O)c2ccccc2C1=O [MK-7, vitamin K2 (MK-7)] | 35.67 |
